In patent USRE34387E, “Method for restoring depleted purine nucleotide pools” (priority 1988, dated 1993):

Legend:
[1] = molecular target: T1, adenylosuccinate lyase (cardiac muscle) (Mus musculus, UniProt P54822); settings: bifunctional enzyme; cited from earlier work
T1 construct: the hearts and gastrocnemius muscles were excised, weighed, and homogenized to a slurry; from tissue; host or cells: mouse heart (C57BL/6J), dialyzed 10,000×g supernatant
T1 sequence (P54822 2-484 limits assumed): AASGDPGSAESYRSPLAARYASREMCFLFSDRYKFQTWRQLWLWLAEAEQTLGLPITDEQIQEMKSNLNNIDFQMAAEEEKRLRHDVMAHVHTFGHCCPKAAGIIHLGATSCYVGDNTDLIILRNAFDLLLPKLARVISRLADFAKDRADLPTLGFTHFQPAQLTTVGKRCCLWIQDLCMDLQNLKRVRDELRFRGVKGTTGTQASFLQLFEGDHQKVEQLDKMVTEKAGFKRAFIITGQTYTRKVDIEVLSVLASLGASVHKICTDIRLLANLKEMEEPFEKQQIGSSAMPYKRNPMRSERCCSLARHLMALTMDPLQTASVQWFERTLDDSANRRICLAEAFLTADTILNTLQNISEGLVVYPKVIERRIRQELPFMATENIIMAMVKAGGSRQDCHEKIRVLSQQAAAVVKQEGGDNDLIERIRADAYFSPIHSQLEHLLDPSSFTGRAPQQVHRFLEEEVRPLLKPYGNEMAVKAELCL

[2] = Serum urate concentrations after AICAriboside infusion; type: in vivo, adult mongrel dogs; settings: following infusion of 8 mmol
Method: Animal Preparation--Seven adult mongrel dogs were anesthetized intramuscularly with 40 mg of morphine sulfate and intravenously with 80 mg/kg of chloralose, an endotraceal tube was inserted, and ventilation was maintained with an Emerson volume-cycled respirator and 100% oxygen. The heart was exposed through a left lateral thoracotomy, polyvinyl chloride catheters (3-mm outer diameter) were inserted into the left atrium and into the aorta through the right femoral artery, and a Statham TTQ electromagnetic flow meter probe was positioned around the ascending aorta. […] Aortic flow was measured with a Howell Instruments Series 1000 Flowmeter, and stroke volume and cardiac output were calculated from the aortic flow measurement. All hemodynamic data were monitored continuously throughout the course of the study. […]
After hemodynamic parameters had stabilized, regional myocardial blood flow was measured by injecting radioactively labled microspheres. […] Venous and arterial blood samples were also obtained at 42 min. of infusion, and regional myocardial blood flow was measured at 10 and 39 min. of AICAriboside infusion. […]
Other Methods--Serum urate was determined by the enzymatic spectrophotometric method as previously described in Liddle et al., J. Lab. […]

cardiovascular system [3] = test system: cardiovascular system; set-up: species or system adult mongrel dogs; settings: dog, in vivo
Method: Animal Preparation--Seven adult mongrel dogs were anesthetized intramuscularly with 40 mg of morphine sulfate and intravenously with 80 mg/kg of chloralose, an endotraceal tube was inserted, and ventilation was maintained with an Emerson volume-cycled respirator and 100% oxygen. The heart was exposed through a left lateral thoracotomy, polyvinyl chloride catheters (3-mm outer diameter) were inserted into the left atrium and into the aorta through the right femoral artery, and a Statham TTQ electromagnetic flow meter probe was positioned around the ascending aorta. The aortic pressure catheter was connected to a Statham P23 Db transducer (Statham Instruments, Inc., Oxnard, Calif.) with the zero reference at the midchest level. Aortic flow was measured with a Howell Instruments Series 1000 Flowmeter, and stroke volume and cardiac output were calculated from the aortic flow measurement. All hemodynamic data were monitored continuously throughout the course of the study. In 5 of the animals, the skin of the left dorsal hindlimb was opened and the gastrocnemius muscle was identified for subsequent tissue sampling.
After hemodynamic parameters had stabilized, regional myocardial blood flow was measured by injecting radioactively labled microspheres. Tissue samples were obtained from the left ventricle and from the left gastrocnemius muscle. A venous blood sample was also obtained. AICAriboside (100 mM) was then infused into the left atrium at 1.9 ml/min. Repeat tissue samples were taken from the left ventricle at 15, 30 and 42 min. of infusion, and tissue samples were taken from the gastrocnemius muscle at 30 min. of infusion. Venous and arterial blood samples were also obtained at 42 min. of infusion, and regional myocardial blood flow was measured at 10 and 39 min. of AICAriboside infusion. AICAriboside infusion was terminated after 42 min., and tissue samples were taken from the left ventricle at 10, 20, 30 and 60 min. postinfusion and from the left gastrocnemius muscle at 2,22 and 60 min. postinfusion. Venous blood samples were obtained at 10, 30 and 60 min. after AICAriboside infusion. In 4 of the 7 dogs, 400 mM formate was infused intravenously at the rate of 1.9 ml/min. for 42 min. prior to and during AICAriboside infusion. These same animals also received 6 mg of folinic acid as an intravenous bolus 30 min. prior to and 15 min. after initiating AICAriboside infusion.

myocardium = assay: Regional myocardial blood flow, coronary occlusion and 24 hr reperfusion; type: in vivo, dogs; settings: any time point
Method: (§1) Catheters were placed in the left atrium and aorta, and a snare positioned around the left anterior descending coronary artery in 15 open-chest dogs. Regional myocardial blood flow was measured and transmural tissue samples were obtained using known techniques. Blood flow measurements and tissue samples were obtained prior to and just before release of a 12-minute coronary occlusion. The chest was closed and the animals allowed to awaken. Twenty-four hours later, the animals were anesthetized, the chest opened, blood flow measured, and tissue samples obtained. No hemodynamic measurements were made on the animals.
(§2) In seven animals, 200 mM AICAriboside (Sigma Chemical Co.) was infused into the left atrial catether at either 14 μmol/min (n=2) or 37 μmol/min (n=5) beginning with coronary occlusion and continuing for 24 hours. Eight control animals were infused with an equal volume of saline over 24 hours.
(§3) All comparisons between AICAriboside and saline treated animals were done by unpaired analyses.

postischemic myocardium = assay: Nucleotide and creatine phosphate content in postischemic myocardium; type: in vivo, dogs
Method: as §1, §2
Nucleotide and creatine phosphate analyses were performed by high performance liquid chromatography on acid extracts of the tissue as previously described. Nucleotide analysis is described in Example 1, and creatine phosphate analysis is described in Juengling and Kammermeier, Anal. Biochem., 102, 358-361 (1980).
as §3

[4] = test system: skeletal muscle (gastrocnemius); assay: Purine metabolism in skeletal muscle during and after AICAriboside infusion
Cardiac muscle = assay: Purine metabolism in normal cardiac muscle during and after AICAriboside infusion
cardiovascular system [5] = settings: cited from earlier work; for hemodynamic effects on the cardiovascular system: purine precursors previously used to restore ATP
[6] = molecular target: T1, adenylosuccinate lyase (cardiac muscle); assay: Adenylosuccinate lyase assay, cardiac muscle enzyme; type: biochemical, C57BL/6J mice; settings: pH 7.4, 25° C., 4 enzyme preparations, read-out: apparent Km of adenylosuccinate lyase for adenylosuccinate
Method: (§4) Preparation and Assay of Adenylosuccinate Lyase--Six-week-old C57BL/6J mice were killed, and the hearts and gastrocnemius muscles were excised, weighed, and homogenized to a slurry in 4 volumes of 50 mM Tris-HCl, pH 7.4 at 25° C. containing 1 mM EDTA and 1 mM β-mercaptoethanol in a TenBroeck glass homogenizer. The homogenate was centrifuged at 10,000×g for 15 min and the supernatant was dialyzed against 1,000 volumes of the extraction buffer for 2 h at 4° C. The lyase activity was partially stabilized by the addition of EDTA and β-mercaptoethanol, but some activity was lost even on storage at -70° C.
(§5) The assays were carried out at pH 7.4 were reaction mixtures that contained 50 mM Tris-HCl buffer, 1 mM EDTA, 1mM β-mercaptoethanol, 20 μM adenylosuccinate, and the enzyme extract (protein concentration, 0.13-0.20 mg/ml). The decrease in absorbance at 280 nm was measured using a Gilford recording spectrophotometer. All assays were done at 25° C. and were linear with respect to time of incubation and with the amount of protein in extract added to the assay.
(§6) These are average values for experiments with 4 separate enzyme preparations. The experimental points in the double reciprocal plots were fitted to the best line by the method of least squares with all points being weighted equally.

[7] = molecular target: T2, adenylosuccinate lyase (skeletal muscle) (Mus musculus, UniProt P54822); assay: Adenylosuccinate lyase assay, skeletal muscle enzyme; type: biochemical, C57BL/6J mice; settings: pH 7.4, 25° C., 4 enzyme preparations, read-out: apparent Km of adenylosuccinate lyase for adenylosuccinate
T2 construct: the hearts and gastrocnemius muscles were excised, weighed, and homogenized to a slurry; from tissue; host or cells: mouse gastrocnemius muscle (C57BL/6J), dialyzed 10,000×g supernatant
T2 sequence (P54822 2-484 limits assumed): T1 sequence (P54822 2-484 limits assumed)
Method: as §4, §5, §6

[8] = endo, preocclusion (before infusion)
[9] = epi, preocclusion (before infusion)
[10] = before, during or after infusion, detection limit 3 nmol/g
[11] = skeletal muscle, infusion and up to 60 min thereafter
[12] = myocardial, throughout the study

For NC(=O)c1ncn([C@@H]2O[C@H](COP(=O)(O)O)[C@@H](O)[C@H]2O)c1N [AICAR, 5-Amino-4-imidazolecarboxamide Ribotide], the “effect on both lyase activities of adenylosuccinate lyase” value [1] is listed as “inhibited by AICAR”.
For NC(=O)c1ncn([C@@H]2O[C@H](CO)[C@@H](O)[C@H]2O)c1N [AICAriboside, 5-amino-4-imidazolecarboxamide riboside], the “mean serum urate concentration increase” value [2] was 3.7 fold, the Heart rate (cardiovascular system [3]) was “not significantly altered” and the “aortic systolic and diastolic pressure” value (cardiovascular system [3]) was “not significantly altered”. For the same compound, the cardiac output (cardiovascular system [3]) was “not significantly altered”, the “epicardial and endocardial regional blood flow” value (cardiovascular system [3]) was “not significantly altered” and the “regional flow versus saline group” value (myocardium) was “no differences in regional flow at any time point”. The “GTP content versus saline” value (postischemic myocardium; 24 hours reperfusion, epicardium and endocardium, P<0.003) was “greater in the AICAriboside group”, the “epicardial and endocardial ATP content versus saline” value (postischemic myocardium; 24 hours reperfusion, previously ischemic region, P<0.001) was “greater in the AICAriboside group” and the GTP content restoration (postischemic myocardium; 24 hours, saline 82% (epi), 78% (endo) of nonischemic) was “restored to nonischemic levels”. For the same compound, the “ATP content increase after reperfusion” value (postischemic myocardium; endo, 24 hours, saline group 21%) was 63%, the ADP (postischemic myocardium; [8]) was 0.92 ± 0.03 μmol/g wet wt and the AMP (postischemic myocardium; [8]) was 0.066 ± 0.007 μmol/g wet wt. The “CP (creatine phosphate)” value (postischemic myocardium; [8]) was 6.8 ± 0.7 μmol/g wet wt, the CTP (postischemic myocardium; [8]) was 0.055 ± 0.001 μmol/g wet wt and the IMP (postischemic myocardium; [8]) was 0.004 ± 0.001 μmol/g wet wt. For the same compound, the NAD (postischemic myocardium; [8]) was 0.058 ± 0.04 μmol/g wet wt, the UTP (postischemic myocardium; [8]) was 0.132 ± 0.004 μmol/g wet wt and the “ATP content increase after reperfusion” value (postischemic myocardium; epi, 24 hours, saline group 2%) was 41%. The ADP (postischemic myocardium; [9]) was 0.87 ± 0.03 μmol/g wet wt, the AMP (postischemic myocardium; [9]) was 0.064 ± 0.016 μmol/g wet wt and the “CP (creatine phosphate)” value (postischemic myocardium; [9]) was 7.7 ± 0.6 μmol/g wet wt. The IMP (postischemic myocardium; [9]) was 0.005 ± 0.002 μmol/g wet wt, the NAD (postischemic myocardium; [9]) was 0.060 ± 0.02 μmol/g wet wt and the UTP (postischemic myocardium; [9]) was 0.122 ± 0.005 μmol/g wet wt. For the same compound, the “ATP percentage drop during ischemia versus saline” value (postischemic myocardium; occlusion) was “comparable in both groups”, the “AMP or ADP content versus saline” value (postischemic myocardium; postischemic region) was “no detectable differences” and the “CTP content versus saline” value (postischemic myocardium; postischemic region) was “no statistically significant differences”. For the same compound, the “NAD+ content versus saline” value (postischemic myocardium; postischemic region) was “no statistically significant differences”, the “Total adenine nucleotide content versus saline” value (postischemic myocardium; postischemic region) was “also greater in the AICAriboside group” and the “UTP content versus saline” value (postischemic myocardium; postischemic region) was “no statistically significant differences”. For the same compound, the Adenylosuccinate in biopsies [4, 10] was “not detectable”, the “AICAriboside concentration after infusion was stopped” value ([4]; skeletal muscle) was “fell rapidly in both tissues” and the IMP content rise ([4]; skeletal muscle) was 6-7 fold. The creatine phosphate content ([4]; skeletal muscle, 10.6±0.5 μmol/g at beginning) was “did not vary significantly”, the “NAD+ content” value ([4]; skeletal muscle, did not vary throughout infusion) was 0.32 ± 0.04 µmol/g and the Adenosine ([4]; skeletal muscle, during infusion) was “did not increase”. The hypoxanthine content [4, 11] was “consistently elevated”, the inosine content [4, 11] was “consistently elevated” and the “mean AICAriboside content of cardiac muscle, greater than that of skeletal muscle” value (Cardiac muscle; 30 min of infusion) was 66%. For the same compound, the “uptake by myocardial cells” value (Cardiac muscle; Example 1) was “taken up rapidly by myocardial cells”, the Adenylosuccinate in biopsies (Cardiac muscle; [10]) was “not detectable” and the “time of AICAR peak” value (Cardiac muscle; cardiac and skeletal muscle) was “peaked minutes after AICAriboside infusion was stopped”. The IMP content increase (Cardiac muscle; cardiac muscle) was 3-4 fold, the “myocardial content of CTP” value (Cardiac muscle; cardiac muscle) was “no detectable change” and the adenylate energy charge (Cardiac muscle; cardiac muscle, 0.929±0.003 before infusion) was “did not vary during the course of the experiment”. The creatine phosphate content (Cardiac muscle; cardiac muscle, 6.8±0.4 μmol/g at beginning) was “did not vary significantly”, the “TAN (total adenine nucleotide)” value (Cardiac muscle; cardiac muscle, 20 min postinfusion) was 6.70 ± 0.10 μmol/g. wet weight and the Adenosine (Cardiac muscle; cardiac muscle, during infusion) was “did not increase”. The “AICAriboside concentration after infusion was stopped” value (Cardiac muscle; cardiac muscle, rate of decline greater than in skeletal) was “fell rapidly in both tissues”, the ADP change (Cardiac muscle; cardiac tissue, any time point) was “did not change significantly at any time point” and the AMP change (Cardiac muscle; cardiac tissue, any time point) was “did not change significantly at any time point”. For the same compound, the “ATP content (increase to)” value (Cardiac muscle; cardiac tissue, from 5.55±0.17, p<0.02) was 6.07±0.17 μmol/g , wet weight, the “accumulation of AICAriboside-TP” value (Cardiac muscle; cardiac versus skeletal muscle) was “greater in cardiac muscle” and the “NAD+ content” value (Cardiac muscle; heart, did not vary throughout infusion) was 0.64 ± 0.01 µmol/g. The hypoxanthine content (Cardiac muscle; [12]) was “only minimally increased”, the inosine content (Cardiac muscle; [12]) was “only minimally increased” and the distribution from plasma (Cardiac muscle; similar concentrations in plasma and myocardium) was “readily diffuses from plasma into the interstitial space and intracellular compartments”.
For Nc1ncnc2c1ncn2[C@@H]1O[C@H](CO)[C@@H](O)[C@H]1O [adenosine], the “hemodynamic status of the animal” value (cardiovascular system [5]; adenosine administration) is given as “profound changes” and the “hemodynamic effects on the cardiovascular system” value (shortened to “hemodynamic effects”) (cardiovascular system [5]) is given as “deleterious hemodynamic effects”.
Compound O=C(O)C[C@H](Nc1ncnc2c1ncn2[C@@H]1O[C@H](COP(=O)(O)O)[C@@H](O)[C@H]1O)C(=O)O [adenylosuccinate] has a Km [6] of 2.2 ± 0.3 µM and a Km [7] of 4.5 ± 1.5 µM.
In the case of O=c1[nH]cnc2nc[nH]c12 [hypoxanthine], the “hemodynamic effects” value (cardiovascular system [5]) is listed as “deleterious hemodynamic effects”.
For OC[C@H]1O[C@@H](n2cnc3c(O)ncnc32)[C@H](O)[C@@H]1O [inosine], the “hemodynamic effects” value (cardiovascular system [5]) is given as “deleterious hemodynamic effects”.
